Series [1] concerns Bacillus subtilis ATCC6633. Put plainly: MIC by the agar dilution method. It is filed as cell-based. The text has this: (§1) The minimum inhibitory concentration (MIC) of saccharocin and 3'-oxysaccharocin by the agar dilution method are shown in Table 1.
(In agar dilution, organisms are placed on agar that contains the substance at set levels.)

Series [2] concerns Citrobacter freundie GN346. Put plainly: MIC by the agar dilution method. It is filed as cell-based.
Excerpt: as §1

In series [3] the test system is Enterobacter aerogenes 055. Put plainly: MIC by the agar dilution method. It is filed as cell-based. Conditions: Klebsiella aerogenes.
Excerpt: as §1

Series [4] concerns Enterobacter cloacae GN336. Kind of series: MIC by the agar dilution method. It is filed as cell-based.
Excerpt: as §1

For series [5], the system named is Escherichia coli NIHJ-JC2. Put plainly: MIC by the agar dilution method. It is filed as cell-based. The settings on record: NIHJJC2.
Excerpt: as §1

The test system of series [6] is Escherichia coli W3630RGN14. Kind of series: MIC by the agar dilution method. It is filed as cell-based.
Excerpt: as §1

For a further series, the system named is Escherichia coli W3630. Put plainly: MIC by the agar dilution method. It is filed as cell-based.
Excerpt: as §1

Series [7] has as its system Klebsiella pneumoniae ATCC 10031. Put plainly: MIC by the agar dilution method. It is filed as cell-based. The settings on record: ATCC10031.
Excerpt: as §1

The test system of another series is Proteus morganii 0239. Kind of series: MIC by the agar dilution method. The settings on record: Morganella morganii. It is filed as cell-based.
Excerpt: as §1

The next series concerns Proteus rettgeri ACR. Kind of series: MIC by the agar dilution method. It is filed as cell-based. The settings on record: Providencia rettgeri.
Excerpt: as §1

Series [8] relates to Pseudomonas aeruginosa 1946. Put plainly: MIC by the agar dilution method. It is filed as cell-based.
Excerpt: as §1

For series [9], the system named is Pseudomonas aeruginosa 2512. Put plainly: MIC by the agar dilution method. It is filed as cell-based.
Excerpt: as §1

Series [10] concerns Pseudomonas aeruginosa ML4561 RP4. Put plainly: MIC by the agar dilution method. It is filed as cell-based. The settings on record: ML4561RP4.
Excerpt: as §1

Series [11] concerns Pseudomonas aeruginosa ML4561 Rm3164-1. Put plainly: MIC by the agar dilution method. It is filed as cell-based. The settings on record: ML4561RM31641.
Excerpt: as §1

For series [12], the system named is Pseudomonas aeruginosa ML4561 Rm3166. Put plainly: MIC by the agar dilution method. It is filed as cell-based. Conditions: ML4561RM3166.
Excerpt: as §1

The subject of series [13] is Pseudomonas aeruginosa ML4561. Put plainly: MIC by the agar dilution method. It is filed as cell-based.
Excerpt: as §1

The subject of a further series is Pseudomonas aeruginosa. Kind of series: MIC by the agar dilution method. It is filed as cell-based. Conditions: Pseudomonas aeruginosa (no strain code).
Excerpt: as §1

The subject of series [14] is Pseudomonas martfiriae 1850. Put plainly: MIC by the agar dilution method. It is filed as cell-based.
Excerpt: as §1

The subject of another series is Pseudomonas putida 1842. Kind of series: MIC by the agar dilution method. It is filed as cell-based.
Excerpt: as §1

For series [15], the system named is Salmonella enteritidis gaertner. Kind of series: MIC by the agar dilution method. It is filed as cell-based. Conditions: Salmonella enterica.
Excerpt: as §1

Another series concerns Serratia marcescens. Kind of series: MIC by the agar dilution method. It is filed as cell-based.
Excerpt: as §1

Another series deals with Shigella sonnei E33. Kind of series: MIC by the agar dilution method. It is filed as cell-based.
Excerpt: as §1

The subject of series [16] is Staphylococcus aureus 0119. Put plainly: MIC by the agar dilution method. It is filed as cell-based.
Excerpt: as §1

For series [17], the system named is Staphylococcus aureus ATCC 6538P. Put plainly: MIC by the agar dilution method. It is filed as cell-based. Conditions: ATCC6538P.
Excerpt: as §1

For series [18], the system named is Staphylococcus aureus MS27. Put plainly: MIC by the agar dilution method. It is filed as cell-based.
Excerpt: as §1

In series [19] the test system is Staphylococcus epidermidis ap-al-1. Kind of series: MIC by the agar dilution method. It is filed as cell-based. Conditions: APAL1.
Excerpt: as §1

Series [20] relates to Streptococcus pyogenes N.Y.5. Put plainly: MIC by the agar dilution method. It is filed as cell-based.
Excerpt: as §1

The nature of a further series: Solubility. It is filed as physicochemical.
Series [21] has as its system Saccharopolyspora sp. AC 3440. Kind of series: Resistance on antibiotics of the producing strain. It is filed as cell-based.
[22] abbreviates: acetone, benzene, ethyl acetate.
Setting [23] is: 336 h, resistance of producing strain AC 3440, 37° C., 14 days, read-out: MIC.
The mark [24] stands for this setting: resistance of producing strain AC 3440, 37° C., 14 days.

≈ marks a conversion by molar mass, not a printed value. Like-named read-outs stand apart in the source and are kept apart here.

As usually defined, the MIC is the lowest concentration that inhibits growth of the organism. For the compound `CNC1C(OC2OC(CO)C(O)C(O)C2O)OC2C(O)C(N)C(OC3C(N)CC(N)C(O)C3O)OC2C1O` (stereo not drawn) [3'-oxysaccharocin], the MIC in [1] was 3.1 µg/mL (≈ 5.57 µM); in series [2], 12.5 µg/mL (≈ 22.5 µM); in series [3], 12.5 µg/mL (≈ 22.5 µM); in series [4], 12.6 µg/mL (≈ 22.6 µM); in series [5] it was 12.5 µg/mL (≈ 22.5 µM); in [6] it was 12.5 µg/mL (≈ 22.5 µM). Besides, the MIC with Escherichia coli W3630 is 3.1 µg/mL (≈ 5.57 µM); in series [7] it was 12.5 µg/mL (≈ 22.5 µM); against Proteus morganii 0239 it was 12.5 µg/mL (≈ 22.5 µM); with Proteus rettgeri ACR it was 12.5 µg/mL (≈ 22.5 µM); in series [8] it was greater than 50 µg/mL; in series [9], 50 µg/mL (≈ 89.8 µM). Further, the MIC in series [10] was 50 µg/mL (≈ 89.8 µM); in [11], 50 µg/mL (≈ 89.8 µM); in [12], 25 µg/mL (≈ 44.9 µM); in [13] it was 50 µg/mL (≈ 89.8 µM); in the series with Pseudomonas aeruginosa, 50 µg/mL (≈ 89.8 µM); in series [14], greater than 50 µg/mL. The MIC in the series with Pseudomonas putida 1842 amounted to 50 µg/mL (≈ 89.8 µM); in [15], 12.5 µg/mL (≈ 22.5 µM); with Serratia marcescens, 12.5 µg/mL (≈ 22.5 µM); with Shigella sonnei E33, 25 µg/mL (≈ 44.9 µM); in series [16], 12.5 µg/mL (≈ 22.5 µM); in series [17], 25 µg/mL (≈ 44.9 µM). Also, the MIC was determined as 25 µg/mL (≈ 44.9 µM) in [18], 12.5 µg/mL (≈ 22.5 µM) in series [19] and 50 µg/mL (≈ 89.8 µM) in series [20]. In addition, the Solubility result in “Solubility” (setting [22]) is “insoluble”; in the series “Solubility” (water), “soluble”.

In series [21] (336 h), `NC[C@H]1O[C@H](O[C@H]2[C@H](O)[C@@H](O[C@H]3O[C@H](CO)[C@@H](O)[C@H](N)[C@H]3O)[C@H](N)C[C@@H]2N)[C@H](O)[C@@H](O)[C@@H]1O` [Kanamycin] came in with an MIC greater than 100 µg/mL.

With `CCCC(=O)OC1C(C)OC(OC2C(C)OC(OC3C(CC=O)CC(C)C(O)C=CC=CCC(C)OC(=O)CC(O)C3OC)C(O)C2N(C)C)CC1(C)O` (stereo not drawn) [Leucomycin A5], the MIC in series [21] (setting [23]) is greater than 100 µg/mL.

With `NC[C@@H]1O[C@H](O[C@H]2[C@@H](O)[C@H](O[C@@H]3[C@@H](O)[C@H](N)C[C@H](N)[C@H]3O[C@H]3O[C@H](CO)[C@@H](O)[C@H](O)[C@H]3N)O[C@@H]2CO)[C@H](N)[C@@H](O)[C@@H]1O` [Paromomycin], the MIC in [21] (setting [23]) turned out to be 50 µg/mL (≈ 81.2 µM).

With `CO[C@H]1/C=C/O[C@@]2(C)Oc3c(C)c(O)c4c(O)c(c(/C=N/N5CCN(C)CC5)c(O)c4c3C2=O)NC(=O)/C(C)=C\C=C\[C@H](C)[C@H](O)[C@@H](C)[C@@H](O)[C@@H](C)[C@H](OC(C)=O)[C@@H]1C` [Rifampicin], the MIC in series [21] (336 h) was less than 12.5 µg/mL.

Regarding `CNC1C(OC2OC(CO)C(O)C(O)C2O)OC2CC(N)C(OC3C(N)CC(N)C(O)C3O)OC2C1O` (stereo not drawn) [Saccharocin], the MIC is 0.8 µg/mL (≈ 1.48 µM) in series [1]; 6.3 µg/mL (≈ 11.7 µM) in [2]; 6.3 µg/mL (≈ 11.7 µM) in [3]; 6.3 µg/mL (≈ 11.7 µM) in series [4]; 6.3 µg/mL (≈ 11.7 µM) in series [5]; 3.1 µg/mL (≈ 5.73 µM) in series [6]. In addition, the MIC in the series with Escherichia coli W3630 is 1.6 µg/mL (≈ 2.96 µM); in [7], 3.1 µg/mL (≈ 5.73 µM); with Proteus morganii 0239, 6.3 µg/mL (≈ 11.7 µM); against Proteus rettgeri ACR, 3.1 µg/mL (≈ 5.73 µM); in [8], greater than 100 µg/mL; in [9], 50 µg/mL (≈ 92.5 µM). In addition, the MIC was 12.5 µg/mL (≈ 23.1 µM) in series [10]; 25 µg/mL (≈ 46.2 µM) in series [11]; 12.5 µg/mL (≈ 23.1 µM) in series [12]; 25 µg/mL (≈ 46.2 µM) in series [13]; 25 µg/mL (≈ 46.2 µM) with Pseudomonas aeruginosa; greater than 100 µg/mL in series [14]. Also, the MIC against Pseudomonas putida 1842 was determined as 25 µg/mL (≈ 46.2 µM); in series [15], 6.3 µg/mL (≈ 11.7 µM); against Serratia marcescens, 6.3 µg/mL (≈ 11.7 µM); against Shigella sonnei E33, 6.3 µg/mL (≈ 11.7 µM); in series [16], 6.3 µg/mL (≈ 11.7 µM); in series [17], 12.5 µg/mL (≈ 23.1 µM). The MIC in series [18] amounted to 12.5 µg/mL (≈ 23.1 µM); in series [19], 6.3 µg/mL (≈ 11.7 µM); in series [20] it was 25 µg/mL (≈ 46.2 µM). Moreover, the Solubility result in the series “Solubility” (setting [22]) is listed as “insoluble”; in “Solubility” (water) it was “soluble”.

Consider `[H]/N=C(/N)N[C@H]1[C@H](O)[C@@H](O)[C@H](O[C@@H]2O[C@@H](C)[C@](O)(C=O)[C@H]2O[C@@H]2O[C@@H](CO)[C@H](O)[C@@H](O)[C@@H]2NC)[C@@H](N/C(N)=N\[H])[C@@H]1O` [Streptomycin], for which the MIC in [21] (setting [23]) was 25 µg/mL (≈ 43 µM).

With `NC[C@H]1O[C@H](O[C@H]2[C@H](O)[C@@H](O[C@H]3O[C@H](CO)[C@@H](O)[C@H](N)[C@H]3O)[C@H](N)C[C@@H]2N)[C@H](N)C[C@@H]1O` [Tobramycin], the MIC in series [21] (setting [23]) was greater than 100 µg/mL.

In the case of Gentamicin, the MIC in series [21] (setting [24]) is greater than 100 µg/mL.

Regarding Neomycin, the MIC in series [21] (setting [24]) was found to be 100 µg/mL.

Source of the values: patent US4482707A, “Aminoglycoside antibiotic saccharocins” (Toyo Jozo Kabushiki Kaisha, priority 1981, dated 1984).
